Our source for the melting point values is US20070027143A1, “Novel substituted 2,3-benzodiazepine derivatives” (priority 2003, published 2007).

As usually defined, the melting point is the temperature of the solid-liquid transition.

As for `CC(=O)OCc1nnc(N2N=C(c3ccc(N)c(C)c3)c3cc4c(cc3C[C@H]2C)OCO4)s1` [Example 172, (R)-7-(5-Acetoxymethyl-1,3,4-thiadiazol-2-yl)-5-(4-amino-3-methylphenyl)-8-methyl-8,9-dihydro-7H-1,3-dioxolo[4,5-h][2,3]benzodiazepine], the melting point is 204 to 206 °C.

In turn, `Cc1nc(N2N=C(c3ccc(N)cc3)c3cc4c(cc3CC2C)OCO4)cs1` (racemic) [Example 110, (±)-5-(4-Aminophenyl)-8-methyl-7-(2-methyl-thiazol-4-yl)-8,9-dihydro-7H-1,3-dioxolo-[4,5-h][2,3]benzodiazepine] displayed a melting point of 132 to 135 °C.

In the case of `CC1Cc2ccc(Cl)cc2C(c2ccc(N)cc2)=NN1c1nncs1` (racemic) [Example 93, (±)-1-(4-Aminophenyl)-8-chloro-4-methyl-3-(1,3,4-thiadiazol-2-yl)-4,5-dihydro-3H-[2,3]benzodiazepine], the melting point lay within 125 to 128 °C.

`CC(=O)Nc1ccc(C2=NN(c3nnc(C)s3)C(C)Cc3cc4c(cc32)OCO4)cc1C` (racemic) [Example 131, (±)-5-(4-Acetylamino-3-methylphenyl)-8-methyl-7-(5-methyl-1,3,4-thiadiazol-2-yl)-8,9-dihydro-7H-1,3-dioxolo[4,5-h][2,3]benzodiazepine]: the melting point was 258 to 262 °C.

The compound `Cc1cc(C2=NN(c3nccs3)C(C)Cc3cc4c(cc32)OCO4)ccc1N` (racemic) [Example 75, (±)-5-(4-Amino-3-methylphenyl)-8-methyl-7-(2-thiazolyl)-8,9-dihydro-7H-1,3-dioxolo-[4,5-h][2,3]benzodiazepine] returned a melting point of 225 to 227 °C.

As for `CC(=O)Nc1ccc(C2=NN(C3=NCCS3)[C@H](C)Cc3cc4c(cc32)OCO4)cc1` [Example 125, (R)-5-(4-Acetylaminophenyl)-7-(4,5-dihydro-thiazol-2-yl)-8-methyl-8,9-dihydro-7H-1,3-dioxolo-[4,5-h][2,3]benzodiazepine], the melting point lay within 143 to 145 °C.

The compound `COc1ccc2c(c1)C(c1ccc(N)cc1)=NN(c1nccs1)C(C)C2` (racemic) [Example 76, (±)-1-(4-Aminophenyl)-4-methyl-8-methoxy-3-(2-thiazolyl)-4,5-dihydro-3H-[2,3]benzodiazepine] displayed a melting point of 105 to 107 °C.

For `CC1Cc2cc3c(cc2C(c2ccc(N)cc2)=NN1C1=NC(=O)CCS1)OCO3` (racemic) [Example 73, (±)-5-(4-Aminophenyl)-7-(5,6-dihydro-4-oxo-4H-1,3-thiazin-2-yl)-8-methyl-8,9-dihydro-7H-1,3-dioxolo-[4,5-h][2,3]benzodiazepine], the melting point lay within 226 to 228 °C.

For `COCc1nnc(N2N=C(c3ccc(N)c(Cl)c3)c3cc4c(cc3C[C@H]2C)OCO4)s1` [Example 183, (R)-5-(4-Amino-3-chlorophenyl)-8-methyl-7-(5-methoxymethyl-1,3,4-thiadiazol-2-yl)-8,9-dihydro-7H-1,3-dioxolo[4,5-h][2,3]benzodiazepine], the melting point was 105 to 109 °C.

The compound `CC1Cc2cc3c(cc2C(c2ccc(N)cc2)=NN1c1ncccn1)OCO3` (racemic) [Example 111, (±)-5-(4-Aminophenyl)-8-methyl-7-(2-pyrimidinyl)-8,9-dihydro-7H-1,3-dioxolo[4,5-h][2,3]benzodiazepine] displayed a melting point of 233 to 235 °C.

The compound `Cc1cc(N2N=C(c3ccc(N)cc3)c3cc4c(cc3CC2C)OCO4)on1` (racemic) [Example 185, (±)-5-(4-Aminophenyl)-8-methyl-7-(3-methyl-isoxazol-5-yl)-8,9-dihydro-7H-1,3-dioxolo-[4,5-h][2,3]benzodiazepine] showed a melting point of 100 to 103 °C.

In turn, `C[C@H]1Cc2cc3c(cc2C(c2ccc(N)cc2)=NN1C1=NCCS1)OCO3` [Example 70, (S)-5-(4-Aminophenyl)-7-(4,5-dihydro-thiazol-2-yl)-8-methyl-8,9-dihydro-7H-1,3-dioxolo-[4,5-h][2,3]benzodiazepine] yielded a melting point of 150 to 152 °C.

Take `CCOC(=O)c1csc(N2N=C(c3ccc(N)cc3)c3cc4c(cc3CC2C)OCO4)n1` (racemic) [Example 67, (±)-5-(4-Aminophenyl)-7-(4-ethoxycarbonyl-thiazol-2-yl)-8-methyl-8,9-dihydro-7H-1,3-dioxolo-[4,5-h][2,3]benzodiazepine]: the melting point is 251 to 252 °C.

The compound `CC1Cc2cc3c(cc2C(c2ccc(N)cc2)=NN1c1n[nH]c(=O)s1)OCO3` (racemic) [Example 101, (±)-5-(4-Aminophenyl)-8-methyl-7-(5-oxo-4,5-dihydro-1,3,4-thiadiazol-2-yl)-8,9-dihydro-7H-1,3-dioxolo-[4,5-h][2,3]benzodiazepine] registered a melting point of 263 to 264 °C.

As for `Cc1csc(N2N=C(c3ccc(N)cc3)c3cc(Cl)c(Cl)cc3CC2C)n1` (racemic) [Example 81, (±)-1-(4-Aminophenyl)-7,8-dichloro-3-(4-methyl-thiazol-2-yl)-4-methyl-4,5-dihydro-3H-[2,3]benzodiazepine], the melting point fell in the range of 182 to 184 °C.

`Cc1cc(C2=NN(c3nnc(CO)s3)[C@H](C)Cc3cc4c(cc32)OCO4)ccc1[N+](=O)[O-]` [Example 140, (R)-7-(5-Hydroxymethyl-1,3,4-thiadiazol-2-yl)-8-methyl-5-(3-methyl-4-nitrophenyl)-8,9-dihydro-7H-1,3-dioxolo[4,5-h][2,3]benzodiazepine] had a melting point of 142 to 145 °C.

For the compound `CCCCCCc1nnc(N2N=C(c3ccc([N+](=O)[O-])c(C)c3)c3cc4c(cc3C[C@H]2C)OCO4)s1` [Example 147, (R)-7-(5-Hexyl-1,3,4-thiadiazol-2-yl)-8-methyl-5-(3-methyl-4-nitrophenyl)-8,9-dihydro-7H-1,3-dioxolo[4,5-h][2,3]benzodiazepine], the melting point was 217 to 224 °C.

With `CC1=Cc2cc3c(cc2C(c2ccc(N)cc2)=NN1c1ncon1)OCO3.Cl`, the melting point was in the range of 124 to 126 °C.

`CC(=O)Nc1ccc(C2=NN(C3=NCCS3)[C@@H](C)Cc3cc4c(cc32)OCO4)cc1` [Example 126, (S)-5-(4-Acetylaminophenyl)-7-(4,5-dihydro-thiazol-2-yl)-8-methyl-8,9-dihydro-7H-1,3-dioxolo-[4,5-h][2,3]benzodiazepine]: the melting point fell in the range of 148 to 154 °C.

For the compound `CC(=O)Nc1ccc(C2=NN(c3nc(C)cs3)C(C)Cc3cc4c(cc32)OCO4)cc1` (racemic) (hydrate or solvate) [Example 121, (±)-5-(4-Acetylaminophenyl)-8-methyl-7-(4-methyl-thiazol-2-yl)-8,9-dihydro-7H-1,3-dioxolo-[4,5-h][2,3]benzodiazepine], the melting point is 236 to 238 °C.

With `CC(=O)OCc1nnc(N2N=C(c3ccc([N+](=O)[O-])c(C)c3)c3cc4c(cc3C[C@H]2C)OCO4)s1` [Example 141, (R)-7-(5-Acetoxymethyl-1,3,4-thiadiazol-2-yl)-8-methyl-5-(3-methyl-4-nitrophenyl)-8,9-dihydro-7H-1,3-dioxolo[4,5-h][2,3]benzodiazepine], the melting point was 110 to 115 °C.

Compound `CC1Cc2cc3c(cc2C(c2ccc(N)cc2)=NN1c1nc(-c2ccccc2)cs1)OCO3` (racemic) [Example 66, (±)-5-(4-Aminophenyl)-7-(4-phenyl-thiazol-2-yl)-8-methyl-8,9-dihydro-7H-1,3-dioxolo-[4,5-h][2,3]benzodiazepine] displayed a melting point of 221 to 223 °C.
